Test results: ChEMBL document CHEMBL6153085, “Discovery of N-(1,2,4-Thiadiazol-5-yl)benzo[b]oxepine-4-carboxamide Derivatives as Novel Antiresistance Androgen Receptor Antagonists” (J Med Chem, 2025)

Key:
[1] = Antiproliferative activity against human LNCaP-EnzR cells assessed as inhibition of cell proliferation incubated for 3 days by MTT assay; conditions: 72 h
[2] = Antiproliferative activity against mouse 3T3 cells incubated for 3 days by MTT assay; conditions: NIH3T3 cells
[3] = tested on: LNCaP; test: Antiproliferative activity against human LNCaP cells assessed as inhibition of cell proliferation incubated for 3 days by MTT assay; conditions: 72 h
[4] = target: T1, Androgen receptor (Homo sapiens, UniProt P10275); test: Antagonist activity at Androgen receptor in human LNCaP cells expressing ARR2PB-eGFP incubated for 3 days by fluorescence based assay
T1 sequence (P10275 whole entry): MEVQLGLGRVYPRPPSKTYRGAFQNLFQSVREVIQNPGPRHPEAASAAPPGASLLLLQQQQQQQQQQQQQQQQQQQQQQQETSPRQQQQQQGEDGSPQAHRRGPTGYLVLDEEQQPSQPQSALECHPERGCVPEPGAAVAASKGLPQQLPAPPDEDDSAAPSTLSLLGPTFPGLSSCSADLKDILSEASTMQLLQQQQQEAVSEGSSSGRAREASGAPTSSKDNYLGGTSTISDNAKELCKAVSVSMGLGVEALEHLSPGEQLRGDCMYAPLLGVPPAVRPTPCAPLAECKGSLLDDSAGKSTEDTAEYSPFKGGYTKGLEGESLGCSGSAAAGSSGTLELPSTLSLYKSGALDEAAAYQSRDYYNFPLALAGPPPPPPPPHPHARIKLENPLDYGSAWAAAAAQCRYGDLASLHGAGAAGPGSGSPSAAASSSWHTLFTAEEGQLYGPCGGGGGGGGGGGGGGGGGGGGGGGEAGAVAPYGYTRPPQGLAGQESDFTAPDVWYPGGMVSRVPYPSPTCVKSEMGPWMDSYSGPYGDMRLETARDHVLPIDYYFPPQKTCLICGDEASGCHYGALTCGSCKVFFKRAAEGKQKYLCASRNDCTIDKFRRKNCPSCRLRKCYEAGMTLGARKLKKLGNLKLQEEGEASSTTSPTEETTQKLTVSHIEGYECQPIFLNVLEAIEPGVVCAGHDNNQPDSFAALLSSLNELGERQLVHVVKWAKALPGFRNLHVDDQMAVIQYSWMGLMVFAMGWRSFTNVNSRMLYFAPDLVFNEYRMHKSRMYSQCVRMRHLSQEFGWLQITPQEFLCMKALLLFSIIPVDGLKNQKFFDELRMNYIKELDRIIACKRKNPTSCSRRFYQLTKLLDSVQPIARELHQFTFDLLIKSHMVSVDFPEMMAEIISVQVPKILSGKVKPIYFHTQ

| IC50 [3] [µM] | IC50 [4] [µM] | SMILES | IC50 [1] [µM] | IC50 at 3 days [2] [µM] |
| --- | --- | --- | --- | --- |
| 15.8 | – | CNC(=O)c1ccc(N2C(=S)N(c3ccc(C#N)c(C(F)(F)F)c3)C(=O)C2(C)C)cc1F [ENZALUTAMIDE] | > 50 | > 50 |
| – | 16 | CC(=O)Cc1nsc(NC(=O)/C=C/c2ccc(C(F)(F)F)cc2)n1 | – | – |
